The test system of one series is CCRF-CEM cells. The series is described as follows: In vitro cytotoxicity (MTS) in CCRF-CEM cells. The series is classed as cell-based, human. As to the method: SK-OV-3, CCRF-CEM, HEK-293, MDA-MB-468, LLC-PK1, and MES-SA were used to determine the cytotoxicity of the synthesized linear and cyclic peptides. About 5000, 10,000, and 50,000 cells were seeded for SK-OV-3, HEK-293, and CCRF-CEM cells, respectively, in 0.1 mL of medium per well of 96-well plates. An appropriate medium was used for each cell line (SK-OV-3: McCoy’s 5A with L-glutamine containing fetal bovine serum (FBS) (10%) and penicillin or streptomycin (1%); CCRF-CEM: RPMI-1640 medium with L-glutamine and sodium bicarbonate containing FBS (10%) and penicillin or streptomycin (1%); MDA-MB-468 cells: DMEM/F12 (1:1) (1×) with L-glutamine and 15 mM HEPES containing FBS (10%) and penicillin or streptomycin (1%); LLC-PK1 cells: Dulbecco’s Modified Eagle’s Medium with 4500 mg/L glucose, L-glutamine and sodium bicarbonate, without sodium pyruvate liquid containing FBS (10%) and penicillin or streptomycin (1%); MES-SA cells: consisting of half SK-OV-3 and half CCRF-CEM media; and HEK-293 cells: Minimum Essential Medium Eagle with Earle’s salts and sodium bicarbonate, without L-glutamine containing FBS (10%) and penicillin or streptomycin (1%)). Then, 20 µL of peptides containing 5% DMSO in water were added to each well.
Adhesive cells were detached with 0.05% trypsin/EDTA after 15 min. The suspended cells were seeded in the medium 24 h prior to the experiment according to the previously reported procedure. The medium was changed before adding the peptides for adherent cells. Each concentration 5, 10, 25, 50, and 166 µM (containing 0.8% DMSO) had triplicate wells to minimize possible errors. […] The cell viability was measured by utilizing Multi-Mode Microplate Reader (SpectraMax M5 model, Molecular Devices, San Jose, CA, USA) after adding 20 µL of the MTS reagent to each well and incubating for 3 additional hours. […] The protocol manager was selected “endpoint” on the spectrophotometer’s software (SoftMax Pro 7). The 96-well plates were inserted inside spectrophotometer, and the data were acquired. The percentage of cell viability was calculated using the following equation:(1) =(Average OD values of samples treated with the compound /Average OD values of no treatment samples )∗100

Series [1] can be described thus: Circular dichroism, estimate of secondary structure. The series is classed as physicochemical. The following applies: CD, 100 µM peptide in water, principal component regression analysis. The procedure: Samples were prepared in 100 µM concentration dissolved in water only. The cuvette with the 1 mm path length was used for all the measurements. The circular dichroism analysis was performed with a J-1500 Jasco spectrophotometer using nitrogen gas and PM-539 detector. Parameters were selected as follows: data interval 0.1 nm, data points 701, data pitch 0.1 nm, CD scale 200 mdeg/0.1 dOD, FL scale 200 mdeg/0.1 dOD, D.I.T 2 s, bandwidth 1 nm, cell length 1 mm, start mode immediately, scanning mode continuous, scanning speed 50 nm/min, shutter control auto, and N2 flowmeter manual. An average of three readings between 190 and 260 nm were collected for each sample. The analysis was carried out using one of Multivariate Regression Analyses, which is Principal Component Regression (PCR) with a basis set containing 26 proteins reference under the following conditions: standardization of result 100, replaced negative value to zero, and rejection percentage of 1%.

Non-standard residues stand in square brackets, D forms with d. Residues, ends and D or L forms follow the SMILES beside them. *: point of attachment. 5FAM = O=C1OC2(c3ccc(O)cc3Oc3cc(O)ccc32)c2ccc(C(=O)*)cc21; Dip = N[C@H](C(=O)O)C(c1ccccc1)c1ccccc1

For the molecule `N=C(N)NCCC[C@@H]1NC(=O)[C@H](C(c2ccccc2)c2ccccc2)NC(=O)[C@H](CCCNC(=N)N)NC(=O)[C@H](C(c2ccccc2)c2ccccc2)NC(=O)[C@H](CCCNC(=N)N)NC(=O)[C@H](C(c2ccccc2)c2ccccc2)NC(=O)[C@H](CCCNC(=N)N)NC(=O)[C@H](C(c2ccccc2)c2ccccc2)NC(=O)[C@H](CCCNC(=N)N)NC(=O)[C@H](C(c2ccccc2)c2ccccc2)NC(=O)[C@H](CCCCNC(=O)c2ccc3c(c2)C(=O)OC32c3ccc(O)cc3Oc3cc(O)ccc32)NC1=O` [F’-[K(DipR)5]] (cyclo([Dip]R[Dip]R[Dip]R[Dip]R[Dip]RK(5FAM))), the cytotoxicity result was “minimal cytotoxicity” in the series on CCRF-CEM cells (10 µM, 3 h and 24 h incubations); “no cytotoxicity” in the series with CCRF-CEM cells (166 µM, 3 h incubation).
With `N=C(N)NCCC[C@@H]1NC(=O)[C@H](Cc2c[nH]c3ccccc23)NC(=O)[C@H](CCCNC(=N)N)NC(=O)[C@H](C(c2ccccc2)c2ccccc2)NC(=O)[C@H](CCCNC(=N)N)NC(=O)[C@H](C(c2ccccc2)c2ccccc2)NC(=O)[C@H](CCCNC(=N)N)NC(=O)[C@H](C(c2ccccc2)c2ccccc2)NC(=O)[C@H](CCCNC(=N)N)NC(=O)[C@H](Cc2c[nH]c3ccccc23)NC1=O` [[(DipR)3(WR)2]] (cyclo([Dip]R[Dip]R[Dip]RWRWR)), in series [1], the “Other (random coil)” value was 38.4%, the Turn was 17.0%, the α-helix is listed as 13.1% and the β-sheet is 31.5%.
For the molecule `N=C(N)NCCC[C@@H]1NC(=O)[C@H](Cc2c[nH]c3ccccc23)NC(=O)[C@H](CCCNC(=N)N)NC(=O)[C@H](C(c2ccccc2)c2ccccc2)NC(=O)[C@H](CCCNC(=N)N)NC(=O)[C@H](C(c2ccccc2)c2ccccc2)NC(=O)[C@H](CCCNC(=N)N)NC(=O)[C@H](C(c2ccccc2)c2ccccc2)NC(=O)[C@H](CCCNC(=N)N)NC(=O)[C@H](C(c2ccccc2)c2ccccc2)NC1=O` [[(DipR)4(WR)]] (cyclo([Dip]R[Dip]R[Dip]R[Dip]RWR)), in series [1], the “Other (random coil)” value was 39.7%, the Turn is listed as 16.8%, the α-helix was 8.6% and the β-sheet is 34.9%.

The values are drawn from article PMC8997995, “Amphiphilic Cell-Penetrating Peptides Containing Natural and Unnatural Amino Acids as Drug Delivery Agents” (Cells, 2022).
